In US20130288956A1, “COMBINED PHARMACEUTICAL COMPOSITION AS ANTIFUNGAL AGENT” (priority 2010, published 2013):

Columns and labels:
[1] = test system: C. albicans; test: In vitro combination effects, checkerboard method by micro dilution (FIC index); format: cell-based, Candida albicans; conditions: C. albicans (20 strains); combination use with Test Compound 1
Protocol: (§1) A clinically isolated strain retained by the Medical Mycology Research Center of Chiba University (Code No. IFM) and a clinically isolated strain retained by the Life Science Research Center of Gifu University (Code No. E) were used as Candida and Aspergillus strains.
(§2) Fungus liquid obtained by static culturing at 35° C. for 48 hours in Sabouraud Dextrose liquid medium (SDB, Becton, Dickinson and Co.) was diluted with RPMI 1640 medium (Nissui Pharmaceutical Co., Ltd.) containing 0.165 M 3-(N-morpholino)propanesulfonic acid (MOPS) to prepare a fungus liquid having a fungus concentration of 1×10^3 cells/mL to 2×10^3 cells/mL.
(§3) Test Compound 1 (0.0005 μg/mL to 1.56 μg/mL) in the horizontal rows (12 wells) of a 96-well flat-bottom plate, and an antifungal agent in the form of ravuconazole (0.0015 μg/mL to 6.25 μg/mL), fluconazole (0.008 μg/mL to 32 μg/mL), voriconazole (0.0002 μg/mL to 8 μg/mL), micafungin (0.0005 μg/mL to 0.25 μg/mL), caspofungin (0.0005 μg/mL to 1 μg/mL) or amphotericin B (0.008 μg/mL to 8 μg/mL) in the vertical rows (8 wells) of the flat-bottom plate were prepared by diluting so as to blend together using RPMI 1640 medium containing 0.165 M MOPS to obtain a control group, a single Test Compound 1 group, each one of antifungal agents groups and combination groups of Test Compound 1+each one of antifungal agents.
(§4) The fungus liquids prepared in (1) were inoculated into the wells of 96-well flat-bottom plate containing 20 μL/well to 75 μL/well of the diluted test drug liquids prepared in (2) at 80 μL/well to 125 μL/well, followed by aerobically static culturing for 25 hours to 48 hours at 35° C.
(§5) Combination effects of Test Compound 1 and the antifungal agents were measured with the checkerboard method by micro dilution.
(§6) Interaction between both drugs was assessed by calculating the FIC index using the calculation formula indicated below.
(§7) The FIC index was calculated for each combination of antifungal agent concentrations that inhibited fungal growth, and the minimum value of the resulting FIC index was used as a combination FIC index.
(§8) A combination FIC index of 0.5 or less was evaluated as indicating synergistic action, that of 0.5 to 1 or less was evaluated as indicating additive action, and that of 1 to 4 or less was evaluated as indicating indifferent action.
(§9) FIC Index=(MIC value of drug A during combination use/MIC value of drug A when used alone)+(MIC value of drug B during combination use/MIC value of drug B when used alone) (Calculation Formula)

[2] = test system: C. tropicalis; test: as above; format: cell-based, Candida tropicalis; conditions: C. tropicalis (10 strains); combination use with Test Compound 1
Protocol: as §1, §2, §3, §4, §5, §6, §7, §8, §9

[3] = test system: C. glabrata; test: as above; format: cell-based, Candida glabrata; conditions: C. glabrata (10 strains); combination use with Test Compound 1
Protocol: as §1, §2, §3, §4, §5, §6, §7, §8, §9

[4] = test system: A. fumigatus; test: as above; format: cell-based, Aspergillus fumigatus; conditions: A. fumigatus (18 strains)
Protocol: as §1
(§10) An Aspergillus strain stored frozen at −80° C., or spores obtained by static culturing at 35° C. for 1 week in Potato Dextrose agar medium (PDA, Eiken Chemical Co., Ltd.) followed by scraping from the container with a metal loop, was diluted with RPMI 1640 medium containing 0.165 M MOPS to prepare a fungus liquid having a fungus concentration of 0.75×10^4 cells/mL to 1.33×10^4 cells/mL.
as §3, §4, §5, §6, §7, §8, §9

[5] = test system: A. flavus; test: as above; format: cell-based, Aspergillus flavus; conditions: A. flavus (4 strains), Table 1
Protocol: as §1, §10, §3, §4, §5, §6, §7, §8, §9

[6] = test system: A. flavus strain IFM50915; test: A. flavus respiratory tract infection model; format: in vivo, mice
Protocol: (§11) Female DBA/2N mice (age 8 weeks, Charles River Laboratories Japan, Inc.) were subcutaneously administered 200 mg/kg of 5-fluorouracil 5 or 6 days prior to infection in order to put the mice into a compromised state.
(§12) A. fumigatus strain IFM52108 and A. flavus strain IFM50915 were used.
A liquid containing spores of A. flavus strain IFM50915 stored at −80° C. was thawed, and the number of spores was counted using a hemocytometer followed by diluting with sterile physiological saline containing 0.05% Tween 80 to a concentration of 0.6×10^6 cells/mL to 1.0×10^6 cells/mL to obtain an inoculation fungus liquid.
(§13) 50 μl of inoculation fungus liquid were inoculated into the nasal cavities of 9-week-old mice at 0.3×10^5 cells/mouse to 1.25×10^5 cells/mouse under Ketalar anesthesia.
(§14) 0.1 mL to 0.2 mL of each drug solution (dissolved in sterile physiological saline or 5% glucose solution, or dissolved in sterile physiological saline or 5% glucose solution containing 6.5% dimethylsulfoxide and 3.5% Tween 80) was administered to the individual and combination dose groups either into the peritoneal cavity or into the stomach using a gastric cannula corresponding to the administration route of the drug for 3 to 4 days at the rate of 1 to 2 times per day starting 0.5 hours to 1 hour after inoculation of fungus.
(§15) There were 5 to 9 animals in each group.
(§16) Infection protection results were assessed on survival rate 14 days after infection.

[7] = test system: A. fumigatus strain IFM52108; test: A. fumigatus respiratory tract infection model; format: in vivo, mice
Protocol: as §11, §12
A liquid containing spores of A. fumigatus strain IFM52108 stored at −80° C. was applied to Potato Dextrose agar medium (PDA, Eiken Chemical Co., Ltd.) followed by static culturing for 5 to 7 days at 35° C. and suspending in sterile physiological saline containing 0.05% Tween 80.
The number of spores was counted using a hemocytometer, and the liquid was diluted with sterile physiological saline containing 0.05% Tween 80 to a concentration of 1.2×10^6 cells/mL to 2.5×10^6 cells/mL to obtain an inoculation fungus liquid.
as §13, §14, §15, §16

[8] = combination with the test compound of the invention

| SMILES | Ratio indicating Additive effect of combination use with Test Compound 1 [1] [%] | Ratio indicating Antagonistic effect of combination use with Test Compound 1 [1] [%] | Ratio indicating Indifferent effect of combination use with Test Compound 1 [1] [%] | Ratio indicating Synergistic effect of combination use with Test Compound 1 [1] [%] | Ratio indicating Additive effect of combination use with Test Compound 1 [2] [%] | Ratio indicating Antagonistic effect of combination use with Test Compound 1 [2] [%] | Ratio indicating Indifferent effect of combination use with Test Compound 1 [2] [%] | Ratio indicating Synergistic effect of combination use with Test Compound 1 [2] [%] | Ratio indicating Additive effect of combination use with Test Compound 1 [3] [%] | Ratio indicating Antagonistic effect of combination use with Test Compound 1 [3] [%] | Ratio indicating Indifferent effect of combination use with Test Compound 1 [3] [%] | Ratio indicating Synergistic effect of combination use with Test Compound 1 [3] [%] | Ratio indicating Additive effect of combination use with Test Compound 1 [4] [%] | Ratio indicating Antagonistic effect of combination use with Test Compound 1 [4] [%] | Ratio indicating Indifferent effect of combination use with Test Compound 1 [4] [%] | Ratio indicating Synergistic effect of combination use with Test Compound 1 [4] [%] | Ratio indicating Additive effect of combination use with Test Compound 1 [5] [%] | Ratio indicating Antagonistic effect of combination use with Test Compound 1 [5] [%] | Ratio indicating Indifferent effect of combination use with Test Compound 1 [5] [%] | Ratio indicating Synergistic effect of combination use with Test Compound 1 [5] [%] | other results |
| --- | --- | --- | --- | --- | --- | --- | --- | --- | --- | --- | --- | --- | --- | --- | --- | --- | --- | --- | --- | --- | --- |
| CC[C@H](C)C[C@H](C)CCCCCCCCC(=O)N[C@H]1C[C@@H](O)[C@@H](NCCN)NC(=O)[C@@H]2[C@@H](O)CCN2C(=O)[C@H]([C@H](O)CCN)NC(=O)[C@H]([C@H](O)[C@@H](O)c2ccc(O)cc2)NC(=O)[C@@H]2C[C@@H](O)CN2C(=O)[C@H]([C@@H](C)O)NC1=O [Caspofungin, caspofungin] | 85 | 0 | 15 | 0 | 90 | 0 | 10 | 0 | 100 | 0 | 0 | 0 | 22 | 0 | 0 | 78 | 25 | 0 | 0 | 75 | 14-day survival rate ([6]; CSFG 0.1 mg/kg, Table 5): 37.5%; 14-day survival rate ([6]; CSFG 0.2 mg/kg, Table 5): 50%; 14-day survival rate ([6]; CSFG 0.25 mg/kg, Table 4): 20%; 14-day survival rate ([6]; CSFG 0.5 mg/kg, Table 4): 60%; Combined effects in mouse Aspergillus flavus infection model [6, 8]: synergistic combined effects |
| Nc1ncccc1-c1cc(Cc2ccc(COc3ccccn3)cc2)no1 [Test Compound 1, 3-(3-(4-(pyridin-2-yloxymethyl)-benzyl)-isoxazol-5-yl)-pyridin-2-ylamine] | – | – | – | – | – | – | – | – | – | – | – | – | – | – | – | – | – | – | – | – | 14-day survival rate ([7]; Test Compound 1 10 mg/kg, Table 3 MCFG experiment): 0%; 14-day survival rate ([7]; Test Compound 1 10 mg/kg, Table 3 RVCZ experiment): 0%; 14-day survival rate ([7]; Test Compound 1 10 mg/kg, Table 3 VRCZ experiment): 40%; 14-day survival rate ([7]; Test Compound 1 20 mg/kg, Table 3 MCFG experiment): 20%; 14-day survival rate ([7]; Test Compound 1 20 mg/kg, Table 3 RVCZ experiment): 20%; 14-day survival rate ([7]; Test Compound 1 20 mg/kg, Table 3 VRCZ experiment): 40%; 14-day survival rate ([6]; Test Compound 1 5 mg/kg, Table 4 AMPH experiment): 20%; 14-day survival rate ([6]; Test Compound 1 5 mg/kg, Table 4 MCFG experiment): 12.5%; 14-day survival rate ([6]; Test Compound 1 5 mg/kg, Table 4 RVCZ experiment): 20%; 14-day survival rate ([6]; Test Compound 1 8 mg/kg, Table 4 CSFG experiment): 0%; 14-day survival rate ([6]; Test Compound 1 10 mg/kg, Table 4 AMPH experiment): 60%; 14-day survival rate ([6]; Test Compound 1 10 mg/kg, Table 4 RVCZ experiment): 60%; 14-day survival rate ([6]; Test Compound 1 16 mg/kg, Table 4 CSFG experiment): 80% |
| C[C@@H](c1ncncc1F)[C@](O)(Cn1cncn1)c1ccc(F)cc1F [Voriconazole, voriconazole] | 75 | 0 | 10 | 15 | 0 | 0 | 0 | 100 | 60 | 0 | 10 | 30 | 28 | 0 | 67 | 6 | 50 | 0 | 50 | 0 | 14-day survival rate ([7]; VRCZ 1 mg/kg): 0%; 14-day survival rate ([7]; VRCZ 2 mg/kg): 20%; Combination effects in mouse Aspergillus fumigatus infection model [7, 8]: synergistic combination effects |
